Experimental data: the NIST ThermoML archive (doi:10.1021/acs.jced.5b00285)
± gives the expanded uncertainty stated by the source.

Settings: 101.33 kPa, Liquid; for mass density: Vibrating tube method; for electrical conductivity: Alternating current cell with electrodes

Compound `CC(=O)[O-].CCn1cc[n+](C)c1` [1-ethyl-3-methylimidazolium acetate] has a viscosity (278.15 K) of 701.2 mPa·s, a mass density (278.15 K) of 1111.95 ± 13 kg/m3 and a viscosity (288.15 K) of 288 ± 140 mPa·s. It also gave a mass density (288.15 K) of 1105.67 ± 13 kg/m3, a viscosity (298.15 K) of 141.1 ± 40 mPa·s and an electrical conductivity (298.15 K) of 0.278 ± 0.0056 S/m. The mass density (298.15 K) was 1099.44 ± 13 kg/m3, the viscosity (308.15 K) was 78.27 ± 9.7 mPa·s and the electrical conductivity (308.15 K) was 0.471 ± 0.0094 S/m. It also gave a mass density (308.15 K) of 1093.24 ± 12 kg/m3, a viscosity (318.15 K) of 47.69 ± 3.3 mPa·s and an electrical conductivity (318.15 K) of 0.733 ± 0.015 S/m. It also gave a mass density (318.15 K) of 1087.13 ± 12 kg/m3, a viscosity (328.15 K) of 31.26 ± 2.2 mPa·s and an electrical conductivity (328.15 K) of 1.07 ± 0.021 S/m. The mass density (328.15 K) was 1081.09 ± 12 kg/m3, the viscosity (338.15 K) was 21.77 ± 1.5 mPa·s and the electrical conductivity (338.15 K) was 1.48 ± 0.029 S/m. For the same compound, the mass density (338.15 K) was 1075.11 ± 12 kg/m3, the viscosity (348.15 K) was 16.01 ± 1.1 mPa·s and the electrical conductivity (348.15 K) was 1.96 ± 0.039 S/m. For the same compound, the mass density (348.15 K) was 1069.17 ± 12 kg/m3, the viscosity (358.15 K) was 12.19 ± 0.84 mPa·s and the electrical conductivity (358.15 K) was 2.5 ± 0.05 S/m. For the same compound, the mass density (358.15 K) was 1063.3 ± 12 kg/m3, the viscosity (368.15 K) was 9.558 ± 0.66 mPa·s and the electrical conductivity (368.15 K) was 3.11 ± 0.062 S/m. For the same compound, the viscosity (378.15 K) was 7.71 ± 0.53 mPa·s, the electrical conductivity (378.15 K) was 3.8 ± 0.076 S/m and the viscosity (388.15 K) was 6.362 ± 0.44 mPa·s. It also gave an electrical conductivity (388.15 K) of 4.53 ± 0.091 S/m, a viscosity (398.15 K) of 5.356 ± 0.37 mPa·s and an electrical conductivity (398.15 K) of 5.31 ± 0.11 S/m. For the same compound, the viscosity (408.15 K) was 4.589 ± 0.32 mPa·s, the electrical conductivity (408.15 K) was 6.13 ± 0.12 S/m and the electrical conductivity (418.15 K) was 6.92 ± 0.14 S/m.
For `CCCCCCCCn1cc[n+](C)c1.O=S(=O)([N-]S(=O)(=O)C(F)(F)F)C(F)(F)F`, the electrical conductivity (273.15 K) was 0.0308 ± 0.0012 S/m, the electrical conductivity (278.15 K) was 0.0432 ± 0.0017 S/m and the electrical conductivity (283.15 K) was 0.059 ± 0.0024 S/m. The electrical conductivity (288.15 K) was 0.0784 ± 0.0031 S/m, the electrical conductivity (293.15 K) was 0.102 ± 0.0041 S/m and the electrical conductivity (298.15 K) was 0.131 ± 0.0052 S/m. It also gave an electrical conductivity (303.15 K) of 0.164 ± 0.0066 S/m, an electrical conductivity (308.15 K) of 0.204 ± 0.0041 S/m and an electrical conductivity (313.15 K) of 0.246 ± 0.0098 S/m. The electrical conductivity (318.15 K) was 0.298 ± 0.006 S/m, the electrical conductivity (323.15 K) was 0.351 ± 0.014 S/m and the electrical conductivity (328.15 K) was 0.415 ± 0.0083 S/m. The electrical conductivity (333.15 K) was 0.478 ± 0.019 S/m, the electrical conductivity (338.15 K) was 0.556 ± 0.011 S/m and the electrical conductivity (343.15 K) was 0.627 ± 0.025 S/m. For the same compound, the electrical conductivity (348.15 K) was 0.72 ± 0.014 S/m, the electrical conductivity (353.15 K) was 0.801 ± 0.032 S/m and the electrical conductivity (358.15 K) was 0.906 ± 0.018 S/m. The electrical conductivity (368.15 K) was 1.11 ± 0.022 S/m, the electrical conductivity (378.15 K) was 1.34 ± 0.027 S/m and the electrical conductivity (388.15 K) was 1.59 ± 0.032 S/m. The electrical conductivity (398.15 K) was 1.85 ± 0.037 S/m, the electrical conductivity (408.15 K) was 2.13 ± 0.043 S/m and the electrical conductivity (418.15 K) was 2.42 ± 0.048 S/m. It also gave an electrical conductivity (428.15 K) of 2.72 ± 0.054 S/m, an electrical conductivity (438.15 K) of 3.04 ± 0.061 S/m and an electrical conductivity (448.15 K) of 3.36 ± 0.067 S/m. For the same compound, the electrical conductivity (458.15 K) was 3.69 ± 0.074 S/m and the electrical conductivity (468.15 K) was 4.03 ± 0.081 S/m.
`CCCCCC[n+]1ccn(C)c1.O=S(=O)([N-]S(=O)(=O)C(F)(F)F)C(F)(F)F` showed a viscosity (278.15 K) of 210.6 ± 12 mPa·s, an electrical conductivity (278.15 K) of 0.0776 ± 0.0015 S/m and a mass density (278.15 K) of 1391.02 ± 2.8 kg/m3. It also gave a mass density (283.15 K) of 1386.34 ± 2.8 kg/m3, a viscosity (288.15 K) of 116.7 ± 5.5 mPa·s and an electrical conductivity (288.15 K) of 0.136 ± 0.0027 S/m. For the same compound, the mass density (288.15 K) was 1381.65 ± 2.8 kg/m3, the mass density (293.15 K) was 1376.98 ± 2.8 kg/m3 and the viscosity (298.15 K) was 70.51 ± 3 mPa·s. The electrical conductivity (298.15 K) was 0.218 ± 0.0044 S/m, the mass density (298.15 K) was 1372.35 ± 2.8 kg/m3 and the mass density (303.15 K) was 1367.74 ± 2.8 kg/m3. For the same compound, the viscosity (308.15 K) was 45.51 ± 1.9 mPa·s, the electrical conductivity (308.15 K) was 0.328 ± 0.0066 S/m and the mass density (308.15 K) was 1363.15 ± 2.8 kg/m3. For the same compound, the mass density (313.15 K) was 1358.58 ± 2.8 kg/m3, the viscosity (318.15 K) was 31.03 ± 1.3 mPa·s and the electrical conductivity (318.15 K) was 0.466 ± 0.0093 S/m. The mass density (318.15 K) was 1354.02 ± 2.8 kg/m3, the mass density (323.15 K) was 1349.49 ± 2.7 kg/m3 and the viscosity (328.15 K) was 22.14 ± 0.91 mPa·s. For the same compound, the electrical conductivity (328.15 K) was 0.634 ± 0.013 S/m, the mass density (328.15 K) was 1344.97 ± 2.7 kg/m3 and the mass density (333.15 K) was 1340.47 ± 2.7 kg/m3. For the same compound, the viscosity (338.15 K) was 16.4 ± 0.68 mPa·s, the electrical conductivity (338.15 K) was 0.83 ± 0.017 S/m and the mass density (338.15 K) was 1335.98 ± 2.7 kg/m3. For the same compound, the mass density (343.15 K) was 1331.51 ± 2.7 kg/m3, the viscosity (348.15 K) was 12.59 ± 0.52 mPa·s and the electrical conductivity (348.15 K) was 1.05 ± 0.021 S/m. It also gave a mass density (348.15 K) of 1327.05 ± 2.7 kg/m3, a mass density (353.15 K) of 1322.61 ± 2.7 kg/m3 and a viscosity (358.15 K) of 9.957 ± 0.41 mPa·s. For the same compound, the electrical conductivity (358.15 K) was 1.3 ± 0.026 S/m, the mass density (358.15 K) was 1318.18 ± 2.7 kg/m3 and the mass density (363.15 K) was 1313.77 ± 2.7 kg/m3. It also gave a viscosity (368.15 K) of 8.066 ± 0.33 mPa·s, an electrical conductivity (368.15 K) of 1.58 ± 0.032 S/m and a viscosity (378.15 K) of 6.673 ± 0.27 mPa·s. For the same compound, the electrical conductivity (378.15 K) was 1.88 ± 0.037 S/m, the viscosity (388.15 K) was 5.623 ± 0.23 mPa·s and the electrical conductivity (388.15 K) was 2.19 ± 0.044 S/m. The viscosity (398.15 K) was 4.819 ± 0.2 mPa·s, the electrical conductivity (398.15 K) was 2.53 ± 0.051 S/m and the viscosity (408.15 K) was 4.19 ± 0.17 mPa·s. For the same compound, the electrical conductivity (408.15 K) was 2.88 ± 0.058 S/m, the electrical conductivity (418.15 K) was 3.24 ± 0.065 S/m and the electrical conductivity (428.15 K) was 3.62 ± 0.072 S/m. It also gave an electrical conductivity (438.15 K) of 4.01 ± 0.08 S/m, an electrical conductivity (448.15 K) of 4.41 ± 0.088 S/m and an electrical conductivity (458.15 K) of 4.82 ± 0.096 S/m. For the same compound, the electrical conductivity (468.15 K) was 5.24 ± 0.1 S/m.
With `CCCCn1cc[n+](C)c1.O=S(=O)([N-]S(=O)(=O)C(F)(F)C(F)(F)F)C(F)(F)C(F)(F)F` [1-butyl-3-methylimidazolium bis(perfluoroethylsulfonyl)imide] the viscosity (273.15 K) was 579.1 ± 43 mPa·s, the electrical conductivity (273.15 K) was 0.0324 ± 0.0013 S/m and the mass density (273.15 K) was 1539.6 ± 3.1 kg/m3. For the same compound, the viscosity (278.15 K) was 398.8 ± 27 mPa·s, the electrical conductivity (278.15 K) was 0.046 ± 0.0018 S/m and the mass density (278.15 K) was 1534 ± 3.1 kg/m3. For the same compound, the viscosity (283.15 K) was 282.2 ± 17 mPa·s, the electrical conductivity (283.15 K) was 0.0634 ± 0.0025 S/m and the mass density (283.15 K) was 1528.5 ± 3.1 kg/m3. It also gave a viscosity (288.15 K) of 205.3 ± 11 mPa·s, an electrical conductivity (288.15 K) of 0.0853 ± 0.0034 S/m and a mass density (288.15 K) of 1523.88 ± 3.1 kg/m3. The viscosity (293.15 K) was 153.3 ± 7.7 mPa·s, the electrical conductivity (293.15 K) was 0.112 ± 0.0045 S/m and the mass density (293.15 K) was 1518.55 ± 3.1 kg/m3. It also gave a viscosity (298.15 K) of 115.9 ± 5.4 mPa·s, an electrical conductivity (298.15 K) of 0.145 ± 0.0058 S/m and a mass density (298.15 K) of 1513.25 ± 3.1 kg/m3. For the same compound, the viscosity (303.15 K) was 89.72 ± 3.9 mPa·s, the electrical conductivity (303.15 K) was 0.183 ± 0.0073 S/m and the mass density (303.15 K) was 1507.96 ± 3.1 kg/m3. For the same compound, the electrical conductivity (308.15 K) was 0.227 ± 0.0046 S/m, the viscosity (313.15 K) was 56.57 ± 2.4 mPa·s and the electrical conductivity (313.15 K) was 0.278 ± 0.011 S/m. For the same compound, the mass density (313.15 K) was 1497.47 ± 3.1 kg/m3, the electrical conductivity (318.15 K) was 0.336 ± 0.0067 S/m and the viscosity (323.15 K) was 37.86 ± 1.6 mPa·s. For the same compound, the electrical conductivity (323.15 K) was 0.4 ± 0.016 S/m, the mass density (323.15 K) was 1487.06 ± 3 kg/m3 and the electrical conductivity (328.15 K) was 0.475 ± 0.0095 S/m. It also gave a viscosity (333.15 K) of 26.63 ± 1.1 mPa·s, an electrical conductivity (333.15 K) of 0.549 ± 0.022 S/m and a mass density (333.15 K) of 1476.73 ± 3 kg/m3. For the same compound, the electrical conductivity (338.15 K) was 0.638 ± 0.013 S/m, the viscosity (343.15 K) was 19.48 ± 0.8 mPa·s and the electrical conductivity (343.15 K) was 0.724 ± 0.029 S/m. It also gave a mass density (343.15 K) of 1466.47 ± 3 kg/m3, an electrical conductivity (348.15 K) of 0.831 ± 0.017 S/m and a viscosity (353.15 K) of 14.74 ± 0.61 mPa·s. It also gave an electrical conductivity (353.15 K) of 0.928 ± 0.037 S/m, a mass density (353.15 K) of 1456.27 ± 3 kg/m3 and an electrical conductivity (358.15 K) of 1.05 ± 0.021 S/m. It also gave a viscosity (363.15 K) of 11.48 ± 0.47 mPa·s, a mass density (363.15 K) of 1446.14 ± 3 kg/m3 and an electrical conductivity (368.15 K) of 1.29 ± 0.026 S/m. The electrical conductivity (378.15 K) was 1.56 ± 0.031 S/m, the electrical conductivity (388.15 K) was 1.86 ± 0.037 S/m and the electrical conductivity (398.15 K) was 2.16 ± 0.043 S/m. For the same compound, the electrical conductivity (408.15 K) was 2.49 ± 0.05 S/m, the electrical conductivity (418.15 K) was 2.83 ± 0.057 S/m and the electrical conductivity (428.15 K) was 3.19 ± 0.064 S/m. The electrical conductivity (438.15 K) was 3.56 ± 0.071 S/m, the electrical conductivity (448.15 K) was 3.94 ± 0.079 S/m and the electrical conductivity (458.15 K) was 4.33 ± 0.087 S/m. For the same compound, the electrical conductivity (468.15 K) was 4.72 ± 0.094 S/m.
